Several values for one entry are separate records, joined by “and”; a condition that tells them apart may be missing. Equal values may be shown once.
Columns and labels:
[1] = parameters: method as in earlier work; details: sodium salicylate (2.0 M); ref 18 (Nainwal et al.); cited from earlier work
[2] = Saturated solubility study in distilled water (pure drug, solid dispersions, physical mixture); type: physicochemical; details: 37 °C, thermodynamic from solid, 37 ± 0.5°C, 24 h shaking + 24 h equilibration
Experimental: To assess the solubility of pure rosuvastatin calcium, produced solid dispersions, and physical mixtures in distilled water, saturation solubility tests were performed. The saturation solubility tests were performed in triplicate according to Higuchi and Connors' technique. The excess of solid dispersions and physical mixtures were added to vials containing 10 ml of distilled water. The vials were shaken for 24 hours on a mechanical isothermal bath shaker at 37 ± 0.5°C and then left alone for another 24 hours to equilibrate. A syringe filter with a grade of 0.45 μm was used to filter the drug-containing solution. An aliquot of the filtrate was suitably diluted with the corresponding reagent, and the dilution was analyzed on a UV-visibledouble-beam spectrophotometer [18].

[3] = In vitro dissolution rate study, USP apparatus I (basket); type: physicochemical; details: within 45 min; 900 ml 0.05 M citrate buffer pH 6.6, 50 rpm, 37°C, 10 mg drug; listed as pure drug
Experimental: In vitro dissolution of rosuvastatin calcium solid dispersions, physical mixtures, and the pure drug was investigated using a basket stirrer in a USP dissolution apparatus (Industrial Lab) (USP apparatus I method). The dissolution medium was 900 ml of 0.05 M citrate buffer at pH 6.6, which is recommended by the US Food and Drug Administration for dissolution studies with rosuvastatin calcium. The rotation speed was 50 rpm, and the temperature was kept constant at 37 ± 0.5°C during the experiment. Each test employed solid dispersions containing 10 mg of rosuvastatin calcium. At known intervals of time of 5, 10, 15, 20, 25, 30, and 45 minutes, 5 ml of the dissolution medium sample was removed and refilled with the same quantity of medium to maintain a consistent volume throughout the experiment. The withdrawn material was filtered using a 0.45 μm syringe filter. After dilution with a 0.05 M citrate buffer solution, the samples were spectrophotometrically analyzed by detecting the absorbance at 241 nm. […] The dissolution studies of each formulation were conducted in triplicate.

[4] = Equilibrium solubility of rosuvastatin calcium in mixed hydrotropic solutions; type: physicochemical; details: total 40%; for solubility at 24 h: mixed hydrotropic agent solution in distilled water; for solubility at 24 h / solubility: 37 °C, aqueous with cosolvent or surfactant or cyclodextrin, thermodynamic from solid; for solubility: mixed hydrotropic solution in distilled water
Experimental: In order to create a clear solution, two to three hydrotropic agents were mixed and dissolved in distilled water. Next, an excessive amount of calcium rosuvastatin was added, and the mixture was shaken until no more rosuvastatin was dissolved. The solutions are mechanically shaken on a mechanical isothermal bath shaker at 37 ± 0.5°C for 24 hours, followed by another 24 hours of equilibration. A grade of 0.45 μm syringe filter was used to filter the resultant solution. Using a UV-visibledouble-beam spectrophotometer, a portion of the material was diluted with distilled water and analyzed at 242 nm. The equilibrium solubility studies were conducted in triplicate. To obtain optimal solubility of rosuvastatin calcium in water, a ratio of three hydrotropic agents was adjusted.

[5] = due to limited water solubility; cited from earlier work
[6] = cited from earlier work
[7] = Equilibrium solubility of rosuvastatin calcium in single hydrotropic agent solutions; type: physicochemical; details: for solubility thermodynamic at 24 h: aqueous hydrotropic agent solution, 37 °C, aqueous with cosolvent or surfactant or cyclodextrin, thermodynamic from solid
Experimental: At first, equilibrium solubility investigations were conducted with a variety of hydrotropic agents. […] In a 10 ml vial, 5 ml of a specific hydrotropic agent solution was accurately measured, and an excess of rosuvastatin calcium was added and physically agitated for 30 minutes until a saturated solution was generated. To achieve equilibrium solubility, the vial was shaken on a mechanical isothermal bath shaker at 37 ± 0.5°C for 24 hours, and the solution was allowed to equilibrate for another 24 hours. The resulting solution was filtered with a grade of 0.45 μm syringe filter. A portion of the sample was diluted with distilled water and examined at 242 nm using a UV-visibledouble-beam spectrophotometer against the respective solvent as a blank. The equilibrium solubility study was conducted in triplicate. The following formula was used for the calculation of solubility enhancement ratios:(1) Enhancement ratio=Solubility of drug in hydrotropic solution/Solubility of drug in water. Equation (1) is used for the calculation of the solubility enhancement ratio.

For `CC(C)c1nc(N(C)S(C)(=O)=O)nc(-c2ccc(F)cc2)c1/C=C/[C@@H](O)C[C@@H](O)CC(=O)O` [rosuvastatin calcium, Rosuvastatin calcium], the Increase in solubility [1] is given as 55 folds, the solubility [2] is given as 0.427 ± 0.005 mg/mL and the “In vitro drug release” value [3] is given as 40.73 ± 4.44% and 40.73%. For the same compound, the Solubility enhancement ratio ([4]; SS : C 20 : 20 % w/v, vs water) was 76.015, the Solubility enhancement ratio ([4]; SS : M 20 : 20 % w/v, vs water) was 128.66 and the Solubility enhancement ratio ([4]; SS : SB 5 : 35 % w/v, vs water) was 189.78. The Solubility enhancement ratio ([4]; SS : SB 10 : 30 % w/v, vs water) was 120.01, the Solubility enhancement ratio ([4]; SS : SB 15 : 25 % w/v, vs water) was 389.37 and the Solubility enhancement ratio ([4]; SS : SB 20 : 20 % w/v, vs water) was 421.02. For the same compound, the Solubility enhancement ratio ([4]; SS : SB : C, each 13.333 % w/v, vs water) was 112.005, the Solubility enhancement ratio ([4]; SS : SB : M, each 13.333 % w/v, vs water) was 172.722 and the Solubility enhancement ratio ([4]; SS : SB : U 10 : 15 : 15 % w/v, vs water) was 200.265. The Solubility enhancement ratio ([4]; SS : SB : U 20 : 05 : 15 % w/v, vs water) was 210.314, the Solubility enhancement ratio ([4]; SS : SB : U 20 : 10 : 10 % w/v, vs water) was 235.414 and the Solubility enhancement ratio ([4]; SS : SB : U 20 : 15 : 05 % w/v, vs water) was 301.328. The Solubility enhancement ratio ([4]; SS : SB : U, each 13.333 % w/v, vs distilled water) was 449.137, the Solubility enhancement ratio ([4]; SS : SB : U, each 13.333 % w/v, vs distilled water, listed as rosuvastatin) was 449 and the Solubility enhancement ratio ([4]; SS : U 20 : 20 % w/v, vs water) was 181.65. The solubility at 24 h ([4]; SS : C 20 : 20 % w/v) was 32.5 ± 0.52 mg/mL, the solubility at 24 h ([4]; SS : M 20 : 20 % w/v) was 55 ± 2.72 mg/mL and the solubility at 24 h ([4]; SS : SB 5 : 35 % w/v) was 81.1 ± 1.54 mg/mL. It also gave a solubility at 24 h ([4]; SS : SB 10 : 30 % w/v) of 51.3 ± 3.38 mg/mL, a solubility at 24 h ([4]; SS : SB 20 : 20 % w/v) of 180 ± 40.1 mg/mL and a solubility at 24 h ([4]; SS : SB : U, each 13.333 % w/v) of 192 ± 38.6 mg/mL. It also gave a solubility at 24 h ([4]; SS : U 20 : 20 % w/v) of 77.6 ± 2.31 mg/mL, a solubility ([4]; SS : SB 15 : 25 % w/v) of 166 ± 7.24 mg/mL and a solubility ([4]; SS : SB : C, each 13.333 % w/v) of 47.9 ± 1.43 mg/mL. It also gave a solubility ([4]; SS : SB : M, each 13.333 % w/v) of 73.8 ± 1.49 mg/mL, a solubility ([4]; SS : SB : U 10 : 15 : 15 % w/v) of 85.6 ± 1.74 mg/mL and a solubility ([4]; SS : SB : U 20 : 05 : 15 % w/v) of 89.9 ± 5.18 mg/mL. It also gave a solubility ([4]; SS : SB : U 20 : 10 : 10 % w/v) of 101 ± 12.7 mg/mL, a solubility ([4]; SS : SB : U 20 : 15 : 05 % w/v) of 129 ± 4.02 mg/mL and a solubility ([4]; SS : SB : U, each 13.333 % w/v) of 192 ± 38.6 mg/mL. The “Biopharmaceutics classification system (BCS) class” value [5] was “class II”, the t1/2 [6] was 19 h and the Oral bioavailability ([6]; oral) was “roughly 20%”. The solubility thermodynamic at 24 h ([7]; citric acid 10% w/v aqueous solution) was 0.45 ± 0.003 mg/mL, the solubility thermodynamic at 24 h ([7]; citric acid 20% w/v aqueous solution) was 0.75 ± 0.05 mg/mL and the solubility thermodynamic at 24 h ([7]; citric acid 30% w/v aqueous solution) was 0.78 ± 0.1 mg/mL. The solubility thermodynamic at 24 h ([7]; citric acid 40% w/v aqueous solution) was 0.93 ± 0.17 mg/mL, the solubility thermodynamic at 24 h ([7]; mannitol 10% w/v aqueous solution) was 0.49 ± 0.13 mg/mL and the solubility thermodynamic at 24 h ([7]; mannitol 20% w/v aqueous solution) was 0.599 ± 0.09 mg/mL. For the same compound, the solubility thermodynamic at 24 h ([7]; mannitol 30% w/v aqueous solution) was 0.66 ± 0.1 mg/mL, the solubility thermodynamic at 24 h ([7]; mannitol 40% w/v aqueous solution) was 0.89 ± 0.028 mg/mL and the solubility thermodynamic at 24 h ([7]; sodium benzoate 10% w/v aqueous solution) was 22.9 ± 1.46 mg/mL. The solubility thermodynamic at 24 h ([7]; sodium benzoate 20% w/v aqueous solution) was 39 ± 4.53 mg/mL, the solubility thermodynamic at 24 h ([7]; sodium benzoate 30% w/v aqueous solution) was 103 ± 14.1 mg/mL and the solubility thermodynamic at 24 h ([7]; sodium benzoate 40% w/v aqueous solution) was 119 ± 13.8 mg/mL. The solubility thermodynamic at 24 h ([7]; sodium salicylate 10% w/v aqueous solution) was 27 ± 1.04 mg/mL, the solubility thermodynamic at 24 h ([7]; sodium salicylate 20% w/v aqueous solution) was 49.9 ± 2.58 mg/mL and the solubility thermodynamic at 24 h ([7]; sodium salicylate 30% w/v aqueous solution) was 97.3 ± 4.13 mg/mL. For the same compound, the solubility thermodynamic at 24 h ([7]; sodium salicylate 40% w/v aqueous solution) was 125 ± 1.8 mg/mL, the solubility thermodynamic at 24 h ([7]; urea 10% w/v aqueous solution) was 0.85 ± 0.07 mg/mL and the solubility thermodynamic at 24 h ([7]; urea 20% w/v aqueous solution) was 1.06 ± 0.08 mg/mL. It also gave a solubility thermodynamic at 24 h ([7]; urea 30% w/v aqueous solution) of 1.13 ± 0.16 mg/mL, a solubility thermodynamic at 24 h ([7]; urea 40% w/v aqueous solution) of 1.36 ± 0.1 mg/mL and a Solubility enhancement ratio ([7]; citric acid solution vs water (fits the 40% w/v value)) of 2.192. The Solubility enhancement ratio ([7]; mannitol solution vs water (fits the 40% w/v value)) was 2.085, the Solubility enhancement ratio ([7]; sodium benzoate solution vs water (fits the 40% w/v value)) was 277.556 and the Solubility enhancement ratio ([7]; sodium salicylate solution (40%) vs water, listed as Rosuvastatin calcium) was 292.961. It also gave a Solubility enhancement ratio ([7]; sodium salicylate solution (40%) vs water, listed as rosuvastatin) of 292.9 and a Solubility enhancement ratio ([7]; urea solution vs water (fits the 40% w/v value)) of 3.198.

— publication PMC9722314, “Solubility Enhancement of a Poorly Water-Soluble Drug Using Hydrotropy and Mixed Hydrotropy-Based Solid Dispersion Techniques” (Advances in Pharmacological and Pharmaceutical Sciences, 2022)
